From patent US7544710B2 (Les Laboratoires Servier, priority 2002, dated 2009)

System: animals
Assay: In vivo study with a different strontium salt (strontium chloride)

For `[Cl-].[Cl-].[Sr+2]` [strontium chloride], which “superficial haemorrhagic lesions in the animals treated” value is on record?
Its value is “very rapidly caused superficial haemorrhagic lesions”.
